Results on four compounds are retold here after publication PMC9571433, “Design, Synthesis, Anti-Varicella-Zoster and Antimicrobial Activity of (Isoxazolidin-3-yl)Phosphonate Conjugates of N1-Functionalised Quinazoline-2,4-Diones” (Molecules, 2022).

The MIC is the smallest concentration in the dilution series that meets the test's criterion for growth inhibition. A word on the MBC: it is the lowest tested concentration that kills the bacteria rather than only halting them. For orientation: EC50 means the concentration needed to bring the measured effect to its halfway point.

One data set has as its system S. aureus ATCC 2593. Put plainly: Broth microdilution MIC/MBC. As to conditions: Staphylococcus aureus, ATCC2593, 24 h, read-out: MIC = MBC.
Another data set has as its system E. faecalis ATCC 29212. Put plainly: Broth microdilution MIC/MBC. As to conditions: Enterococcus faecalis, ATCC29212, 24 h. Background: Broth dilution looks for growth in wells or tubes with falling amounts of substance.
For data set [1], the system named is A. brasiliensis ATCC 16404. Put plainly: Broth microdilution MIC/MBC (antifungal). As to conditions: Aspergillus brasiliensis, ATCC16404, 72 h, read-out: MIC = MBC.
For another data set, the system named is E. coli ATCC 25922. Put plainly: Broth microdilution MIC/MBC. As to conditions: Escherichia coli, ATCC25922, 24 h, read-out: MIC = MBC.
For a further data set, the system named is P. aeruginosa ATCC 27853. The data set is described as follows: Broth microdilution MIC/MBC. As to conditions: Pseudomonas aeruginosa, ATCC27853, 24 h, read-out: MIC = MBC.
A further data set concerns B. cereus PCM 1948. The data set is described as follows: Broth microdilution MIC/MBC. As to conditions: Bacillus cereus.
Another data set has as its system TK+ VZV OKA strain. Put plainly: microbe, parasite or virus in culture. The format is cell-based, varicella-zoster virus. As to conditions: Human alphaherpesvirus 3, HEL, read-out: Antiviral Activity EC50 TK+ VZV Strain (OKA).
For data set [2], the system named is Salmonella typhimurium TA98, TA100, TA1535 and TA1537 and Escherichia coli WP2 uvrA[pKM101]. Put plainly: Ames mutagenicity assay (Ames MPF Penta I, bacterial reverse mutation test, with S9). Format: cell-based. As to conditions: up to 0.625 mg/mL; with Aroclor 1254-induced rat liver S9. On the procedure: The study was performed using a standard microplate Ames MPF^TM Penta I kit (Xenometrix, Allschwil, Switzerland), compliant with the OECD guideline […] [29] and the International Organization for Standardization. This test is a widely accepted short-term bacterial assay for the identification of substances that can produce genetic damage that leads to gene mutations. The bacterial strains used in this assay have various mutations that inactivate a gene involved in the synthesis of essential amino acids, either histidine (Salmonella typhimurium, TA98, TA100, TA1535 and TA1537 strains) or tryptophan (Escherichia coli, WP2uvrA[pKM101 strain), so they can only grow in the culture medium that is supplemented with that amino acid. The mutagenic potential of the sample was assessed after metabolic activation in the presence of Aroclor 1254-induced rat liver S9 (S9 Cofactor kit, Xenometrix, Allschwil, Switzerland). […]
Mutagenicity was determined using a standard microplate AMES MPF^TM PENTA I kit according to the manufacturer’s instructions (Xenometrix, Allschwil, Switzerland). […] The number of wells containing revertant colonies was counted for each dose and compared to a solvent (negative) control. […] The mutagenic potential of the sample was assessed after metabolic activation in the presence of Aroclor 1254-induced rat liver S9 (S9 Cofactor kit, Xenometrix, Allschwil, Switzerland). […]
(In the Ames test, an excess of revertant colonies over the control signals mutagenicity.)

Another data set deals with C. albicans ATCC 10241. The data set is described as follows: Broth microdilution MIC/MBC (antifungal). As to conditions: Candida albicans, ATCC10241, read-out: MIC = MBC.
The next data set concerns TK– VZV 07-1 strain. Put plainly: microbe, parasite or virus in culture. Format: cell-based, varicella-zoster virus. As to conditions: Human alphaherpesvirus 3, HEL, read-out: Antiviral Activity EC50 TK– VZV Strain (07-1).
Data set [3] deals with human embryonic lung (HEL) cells. As to conditions: minimum cytotoxic concentration causing microscopically detectable alteration of cell morphology.
The subject of data set [4] is varicella-zoster virus (VZV). Set-up: method as in PMID 24906510, PMID 28763115, PMID 24219992. As to conditions: read-out: EC50 inhibition of replication of varicella-zoster virus (VZV); cited from earlier work.
The subject of the next data set is adenovirus-2. Set-up: method as in PMID 28763115. As to conditions: read-out: EC50 towards adenovirus-2; cited from earlier work.
A further data set concerns feline herpes viruses. Set-up: method as in PMID 24906510, PMID 28763115, PMID 24219992. As to conditions: read-out: EC50 toward feline herpes viruses; cited from earlier work.

Converted amounts (≈) assume the structure as drawn. Where two headings read alike, the source gives them in different places. A value given as a limit tells only on which side of the number the result lay.

As to `CCOP(=O)(OCC)[C@H]1C[C@H](Cn2c(=O)c3ccccc3n(Cc3cccc(F)c3)c2=O)ON1C` (relative stereo) [Diethyl trans-(5-((1-(3-fluorobenzyl)-2,4-dioxo-1,4-dihydroquinazolin-3(2H)-yl)methyl)-2-methylisoxazolidin-3-yl)phosphonate], the minimum inhibitory concentration (MIC) is 5000 µg/mL (≈ 9.89 mM) in the data set on S. aureus ATCC 2593; greater than 5000 µg/mL against E. faecalis ATCC 29212; 5000 µg/mL (≈ 9.89 mM) in [1]; 2500 µg/mL (≈ 4.95 mM) with E. coli ATCC 25922; 2500 µg/mL (≈ 4.95 mM) with P. aeruginosa ATCC 27853; 625 µg/mL (≈ 1.24 mM) in the data set on B. cereus PCM 1948 (PCM1948). In addition, the minimum inhibitory concentration (MIC) in the data set with B. cereus PCM 1948 (PCM1948, 24 h, read-out: MIC = MBC) is 625 µg/mL (≈ 1.24 mM); with C. albicans ATCC 10241, 2500 µg/mL (≈ 4.95 mM). The compound also had an MBC in the data set on E. faecalis ATCC 29212 greater than 5000 µg/mL. For the same compound, the EC50 worked out at 100 µM in the data set on TK+ VZV OKA strain and 58.5 µM in the data set with TK– VZV 07-1 strain. In addition, the “Mutagenicity (Ames test)” value in [2] is listed as “not being mutagenic”. Also, in [3], the “Cytotoxicity Cell Morphology MCC” value was greater than 100 μM.

Turning to `O=C(c1ccc(F)cc1)n1c(=O)c2ccccc2n(Cc2cn(CCCOCc3ccccc3)nn2)c1=O` [6a], the concentration giving a half-maximal response (EC50) in data set [4] was 6.8 to 8.2 µM.

Consider `C#CCn1c(=O)n(C(=O)c2ccc(F)cc2)c(=O)c2ccccc21` [compound 5], for which the concentration giving a half-maximal response (EC50) in the data set with adenovirus-2 was 8.3 µM.

For the compound `O=C(c1ccccc1)n1c(=O)c2ccccc2n(Cc2cn(C[C@H](OCc3ccccc3)[C@H](O)P(=O)(OCc3ccccc3)OCc3ccccc3)nn2)c1=O` [compound 8], the EC50 in the data set with feline herpes viruses is 24 µM.
